Data on one compound can be found in patent US10233422B2, “Pluripotent cell lines and methods of use thereof” (Parkinson's Institute, priority 2008, dated 2019).

In this experiment the test system is paraquat-treated mouse brain. The experiment in a line: Ex vivo screening of anti-aggregation compounds: Thioflavin S deposits in paraquat-treated mouse brain. The following applies: 250 uM, FIG. 33D-E.

In the case of `Oc1ccccc1O` [Catechol, catechol], the “Thioflavin S deposits (which label aggregate protein)” value was “Diminished Thioflavin S deposits”.
